Key:
[1] = system: Human Mammary Xenograph; test: Dolastatin 10 in vivo, human mammary xenograph; conditions: nude mouse, 26 μg/kg
Description: (§1) The synthesis of potentially useful peptides presents one of the most essential and promising approaches to new types of anticancer and immunosuppressant drugs. The Dolastatins, an unprecedented series of linear and cyclic antineoplastic and/or cytostatic peptides isolated from Indian Ocean sea hare Dolabella auricularia represent excellent leads for synthetic modification. The very productive sea hare Dolabella auricularia has produced a number of structurally distinct peptides with excellent antineoplastic activity. Presently Dolastatin 10, a linear pentapeptide, represents the most important member and is a potentially useful antineoplastic agent. […] Recently the total synthesis and absolute configuration of this structurally unique and biologically active peptide was discovered.

[2] = system: LOX Human Melanoma Xenograph; test: Dolastatin 10 in vivo, LOX human melanoma xenograph; conditions: nude mouse
Description: as §1

[3] = system: OVCAR-3 Human Ovary Xenograph; test: Dolastatin 10 in vivo, OVCAR-3 human ovary xenograph; conditions: OVCAR-3 xenograph, nude mouse, 40 μg/kg
Description: as §1

[4] = system: A498; test: Human cancer cell line growth inhibition, Renal A498; assay type: cell-based; conditions: Renal A498, 48 hrs
Description: (§2) Current research in the control of cancer in the United States is coordinated by the National Cancer Institute (NCI). To determine whether a substance has anti-cancer properties, the NCI has established a systematic protocol. […] The protocol, and the established statistical means for analyzing the results obtained by the standardized testing are fully described in the literature. See: Boyd, Dr. Michael R., Principles & Practice of Oncology, PPO Updates, Volume 3, Number 10, October 1989, for an in depth description of the testing protocol; and Paull K. D., "Display and Analysis of Patterns of Differential Activity of Drugs Against Human Tumor Cell Lines; Development of Mean Graph and COMPARE Algorithm" Journal of the National Cancer Institute Reports, Vol. 81, No. 14, Page 1088, Jul. 14, 1989 for a description of the methods of statistical analysis employed to evaluate the test results. Both of these references are incorporated herein by this reference thereto.
(§3) ED50 (P388) and GI50 (HTCL) identify the drug dose which reduces the percent tumor/cell growth to 50%. There is no mathematical difference between ED50 and GI50, both of which are calculated using the same formula. The only difference is historical usage.
(§4) TGI, means "Total Growth Inhibition" and identifies the drug dose needed to yield zero percent growth, i.e. there are just as many cells at the end of the experiment as were present at the beginning. Whether just as many cells were killed as were produced (steady state), or no growth occurred (total inhibition) cannot be distinguished.
(§5) LC50, means "Lethal Concentration 50%", and identifies the drug concentration which reduces to one-half of the cells originally present at the beginning of the experiment.
(§6) Each drug is tested at five (5) doses: 100 - 10 - 1 - 0.1 - 0.01 - μg/ml. Percent Growths are calculated for each dose. The two (or three) doses with growth values above, below, (or near to) 50% growth are used to calculate the ED50 /GI50 values using a linear regression computation. If no dose yields a growth value under 50%, the results are expressed as: ED50 >(highest dose). If no dose yields growth higher than 50% growth, then ED50 <(lowest dose). Similar calculations are performed for the TGI at 0% growth, and at -50% growth for the LC50.
(§7) At the start of each experiment, cells from the in vitro cell cultures are inoculated into the appropriate tubes or microtiter plates. One set of control tubes/plates is immediately counted to determine the number of cells at the start of the experiment. This is the "baseline count" or "Tzero reading". At the end of the experiment (48 hrs later), a second set of control tubes/plates is analyzed to determine the "Control Growth" value. The growth (or death) of cells relative to the initial quantity of cells is used to define the "Percent of Growth."

[5] = system: SF-295; test: Human cancer cell line growth inhibition, CNS SF-295; assay type: cell-based; conditions: CNS SF-295, 48 hrs
Description: as §2, §3, §4, §5, §6, §7

[6] = system: KM20L2; test: Human cancer cell line growth inhibition, Colon KM20L2; assay type: cell-based; conditions: Colon KM20L2, 48 hrs
Description: as §2, §3, §4, §5, §6, §7

[7] = system: PS-388 Mouse Leukemia; test: PS-388 mouse leukemia cell growth inhibition (ED50); assay type: cell-based; conditions: Mouse Leukemia PS-388
Description: as §3, §6, §7

[8] = system: OVCAR-3; test: Human cancer cell line growth inhibition, Ovarian OVCAR-3; assay type: cell-based; conditions: Ovarian OVCAR-3, 48 hrs
Description: as §2, §3, §4, §5, §6, §7

[9] = system: SK-MEL-5; test: Human cancer cell line growth inhibition, Melanoma SK-MEL-5; assay type: cell-based; conditions: Melanoma SK-MEL-5, 48 hrs
Description: as §2, §3, §4, §5, §6, §7

[10] = system: NCI-H460; test: Human cancer cell line growth inhibition, Lung-NSC NCI-H460; assay type: cell-based; conditions: Lung-NSC NCI-H460, 48 hrs
Description: as §2, §3, §4, §5, §6, §7

Dolastatin 10 was tested, and the T/C [1] was “Toxic”, the T/C ([2]; 3.25 μg/kg) was 170 and the cures ([2]; 3.25 μg/kg) was 17%. The cures ([2]; 6.5 μg/kg) was 33%, the cures ([2]; 13 μg/kg) was 50% and the cures ([2]; 26 μg/kg) was 67%. For the same substance, the T/C ([2]; 52 μg/kg) was “toxic” and the T/C [3] was 300.

Work on Dov--Val--Dil--Dap--His--OMe [10b] yielded a GI-50 [4] of over 0.01 µg/mL, an LC-50 [4] of over 0.01 µg/mL and a TGI [4] of over 0.01 µg/mL. The GI-50 [5] was over 0.01 µg/mL, the LC-50 [5] was over 0.01 µg/mL and the TGI [5] was over 0.01 µg/mL. It also gave a GI-50 [6] of 0.00099 µg/mL, an LC-50 [6] of over 0.01 µg/mL and a TGI [6] of over 0.01 µg/mL. The ED-50 [7] was over 0.01 µg/mL, the GI-50 [8] was 0.00071 µg/mL and the LC-50 [8] was over 0.01 µg/mL. The TGI [8] was over 0.01 µg/mL, the GI-50 [9] was 0.0008 µg/mL and the LC-50 [9] was over 0.01 µg/mL. For the same substance, the TGI [9] was over 0.01 µg/mL, the GI-50 [10] was over 0.01 µg/mL and the LC-50 [10] was over 0.01 µg/mL. The TGI [10] was over 0.01 µg/mL.

For “Dov--Val--Dil--Dap--N^ε --Z--Lys--OMe [10a]”, the GI-50 [4] was over 0.01 µg/mL, the LC-50 [4] was over 0.01 µg/mL and the TGI [4] was over 0.01 µg/mL. The GI-50 [5] was over 0.01 µg/mL, the LC-50 [5] was over 0.01 µg/mL and the TGI [5] was over 0.01 µg/mL. It also gave a GI-50 [6] of over 0.01 µg/mL, an LC-50 [6] of over 0.01 µg/mL and a TGI [6] of over 0.01 µg/mL. It also gave an ED-50 [7] of over 0.01 µg/mL, a GI-50 [8] of 0.0069 µg/mL and an LC-50 [8] of over 0.01 µg/mL. For the same substance, the TGI [8] was over 0.01 µg/mL, the GI-50 [9] was 0.003 µg/mL and the LC-50 [9] was over 0.01 µg/mL. For the same substance, the TGI [9] was over 0.01 µg/mL, the GI-50 [10] was over 0.01 µg/mL and the LC-50 [10] was over 0.01 µg/mL. The TGI [10] was over 0.01 µg/mL.

Substance “N^α,N^ε --di--Z--Lys--Val--Dil--Dap--His--OMe [11a]” has a GI-50 [4] of over 1 µg/mL, an LC-50 [4] of over 1 µg/mL and a TGI [4] of over 1 µg/mL. For the same substance, the GI-50 [5] was 0.67 µg/mL, the LC-50 [5] was over 1 µg/mL and the TGI [5] was over 1 µg/mL. For the same substance, the GI-50 [6] was 0.29 µg/mL, the LC-50 [6] was over 1 µg/mL and the TGI [6] was over 1 µg/mL. The ED-50 [7] was over 1 µg/mL, the GI-50 [8] was 0.12 µg/mL and the LC-50 [8] was over 1 µg/mL. It also gave a TGI [8] of 0.67 µg/mL, a GI-50 [9] of 0.08 µg/mL and an LC-50 [9] of over 1 µg/mL. For the same substance, the TGI [9] was over 1 µg/mL, the GI-50 [10] was 0.27 µg/mL and the LC-50 [10] was over 1 µg/mL. It also gave a TGI [10] of over 1 µg/mL.

With “N^γ,N^γ,N^α --tri--Z--Arg--Val--Dil--Dap--Met--OMe [11c]” the GI-50 [4] was 0.6 µg/mL, the LC-50 [4] was over 1 µg/mL and the TGI [4] was over 1 µg/mL. The GI-50 [5] was 0.13 µg/mL, the LC-50 [5] was over 1 µg/mL and the TGI [5] was over 1 µg/mL. For the same substance, the GI-50 [6] was 0.28 µg/mL, the LC-50 [6] was over 1 µg/mL and the TGI [6] was over 1 µg/mL. For the same substance, the ED-50 [7] was 0.329 µg/mL, the GI-50 [8] was 0.074 µg/mL and the LC-50 [8] was over 1 µg/mL. It also gave a TGI [8] of 0.74 µg/mL, a GI-50 [9] of 0.38 µg/mL and an LC-50 [9] of over 1 µg/mL. The TGI [9] was over 1 µg/mL, the GI-50 [10] was 0.25 µg/mL and the LC-50 [10] was over 1 µg/mL. It also gave a TGI [10] of 0.62 µg/mL.

“N^γ,N^γ,N^α --tri--Z--Arg--Val--Dil--Dap--N^ε --Z--Lys--OMe [11b]” gave a GI-50 [4] of over 1 µg/mL, an LC-50 [4] of over 1 µg/mL and a TGI [4] of over 1 µg/mL. It also gave a GI-50 [5] of over 1 µg/mL, an LC-50 [5] of over 1 µg/mL and a TGI [5] of over 1 µg/mL. It also gave a GI-50 [6] of over 1 µg/mL, an LC-50 [6] of over 1 µg/mL and a TGI [6] of over 1 µg/mL. The ED-50 [7] was 0.513 µg/mL, the GI-50 [8] was over 1 µg/mL and the LC-50 [8] was over 1 µg/mL. It also gave a TGI [8] of over 1 µg/mL, a GI-50 [9] of over 1 µg/mL and an LC-50 [9] of over 1 µg/mL. For the same substance, the TGI [9] was over 1 µg/mL, the GI-50 [10] was over 1 µg/mL and the LC-50 [10] was over 1 µg/mL. It also gave a TGI [10] of over 1 µg/mL.
